The target in experiment [1] is T1, TYRO3 (Homo sapiens, UniProt Q06418).
T1 sequence (Q06418 41-890): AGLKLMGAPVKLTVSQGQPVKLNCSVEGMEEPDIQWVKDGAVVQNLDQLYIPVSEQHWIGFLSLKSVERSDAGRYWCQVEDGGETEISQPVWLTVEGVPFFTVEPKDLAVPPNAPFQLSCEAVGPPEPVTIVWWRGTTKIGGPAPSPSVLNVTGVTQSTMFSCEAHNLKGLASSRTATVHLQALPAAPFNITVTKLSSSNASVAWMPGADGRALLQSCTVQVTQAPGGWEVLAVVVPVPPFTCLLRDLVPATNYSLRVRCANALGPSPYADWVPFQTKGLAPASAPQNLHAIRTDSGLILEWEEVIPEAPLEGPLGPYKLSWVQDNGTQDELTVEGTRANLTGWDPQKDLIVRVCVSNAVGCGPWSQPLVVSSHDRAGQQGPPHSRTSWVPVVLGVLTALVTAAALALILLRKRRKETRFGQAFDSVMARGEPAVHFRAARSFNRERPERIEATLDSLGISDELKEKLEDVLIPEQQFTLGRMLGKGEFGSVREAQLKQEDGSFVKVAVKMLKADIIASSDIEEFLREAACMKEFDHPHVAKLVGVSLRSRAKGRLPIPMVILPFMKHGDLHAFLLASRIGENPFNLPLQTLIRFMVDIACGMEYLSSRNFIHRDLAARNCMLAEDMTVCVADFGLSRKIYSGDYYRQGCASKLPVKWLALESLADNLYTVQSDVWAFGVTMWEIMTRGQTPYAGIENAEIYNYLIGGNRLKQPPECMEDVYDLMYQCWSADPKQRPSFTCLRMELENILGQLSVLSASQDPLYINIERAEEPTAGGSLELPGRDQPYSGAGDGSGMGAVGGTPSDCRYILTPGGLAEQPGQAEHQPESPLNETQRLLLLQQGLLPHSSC
The following applies: Figure 1, known TAM kinase inhibitors; cited from earlier work.

Another experiment deals with Mer. Conditions: Figure 1, known TAM kinase inhibitors; cited from earlier work.
A further experiment deals with T2, MERTK (Homo sapiens, UniProt Q12866).
T2 sequence (Q12866 21-999): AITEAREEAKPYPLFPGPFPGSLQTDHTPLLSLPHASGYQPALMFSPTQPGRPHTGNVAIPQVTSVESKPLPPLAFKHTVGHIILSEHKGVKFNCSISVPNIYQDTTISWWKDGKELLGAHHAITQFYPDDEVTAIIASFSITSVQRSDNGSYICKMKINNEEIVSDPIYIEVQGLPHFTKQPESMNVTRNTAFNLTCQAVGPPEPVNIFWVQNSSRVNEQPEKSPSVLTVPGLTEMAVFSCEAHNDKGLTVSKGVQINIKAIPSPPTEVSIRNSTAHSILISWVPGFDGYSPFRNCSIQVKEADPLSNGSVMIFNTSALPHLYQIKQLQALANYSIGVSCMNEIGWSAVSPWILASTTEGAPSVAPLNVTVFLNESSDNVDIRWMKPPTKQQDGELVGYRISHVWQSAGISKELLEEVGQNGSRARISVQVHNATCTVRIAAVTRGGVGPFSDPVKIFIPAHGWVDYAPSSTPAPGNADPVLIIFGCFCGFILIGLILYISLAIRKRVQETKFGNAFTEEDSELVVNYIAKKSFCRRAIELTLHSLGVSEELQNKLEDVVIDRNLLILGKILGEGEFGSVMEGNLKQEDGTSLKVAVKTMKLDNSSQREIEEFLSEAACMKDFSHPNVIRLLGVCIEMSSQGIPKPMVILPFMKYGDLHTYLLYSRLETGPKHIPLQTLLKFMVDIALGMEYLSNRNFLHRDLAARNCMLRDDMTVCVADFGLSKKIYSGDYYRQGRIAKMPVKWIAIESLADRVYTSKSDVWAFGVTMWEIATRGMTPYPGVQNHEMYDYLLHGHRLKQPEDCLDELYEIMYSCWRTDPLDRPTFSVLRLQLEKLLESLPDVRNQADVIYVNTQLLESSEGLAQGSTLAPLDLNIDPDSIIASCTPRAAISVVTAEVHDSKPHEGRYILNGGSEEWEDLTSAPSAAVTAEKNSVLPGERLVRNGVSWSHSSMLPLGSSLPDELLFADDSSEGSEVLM
The experiment in a line: Kinase assay at Km ATP (Eurofins Discovery), Mer. It is filed as biochemical. Conditions: for IC50: Km ATP, read-out: IC50 (nM) MER. The method, then: (§1) All kinase assays were carried out at Km ATP by Eurofins Discovery's Kinase Screening and Profiling services (France).

In experiment [2] the test system is Mer phosphorylation in Mer-overexpressed human gastric cancer cell line MKN28. Briefly: Western blot of Mer phosphorylation in MKN28 cells. Conditions: 0.5 and 0.1 μM, 1.5 h, UNC2025 positive control. It is filed as cell-based. The method, then:
MKN28 cells were obtained from the Korea Institute of Science and Technology (KIST). Cells were cultured in Roswell Park Memorial Institute (RPMI) 1640 medium containing 10% fetal bovine serum and 1% penicillin/streptomycin at 37 °C with 5% CO2 under a humidified atmosphere.
MKN 28 cells (500,000 cells/2 ml) were seeded in each well of 6-well plates and incubated for 24 h. Then, the cells were treated with 20 µL of DMSO stock solution of the corresponding compounds and incubated for a further 1.5 h. After that, the cells were washed with cold Dulbecco's Phosphate-Buffered Saline (DPBS) twice and lysed with RIPA buffer supplemented with protease inhibitor and phosphatase inhibitor cocktails on ice. Equal amounts of protein samples were boiled with 5× SDS-PAGE loading buffer and separated by 10% SDS-PAGE gels, then transferred onto polyvinylidene difluoride (PVDF) membranes. The membranes were blocked with 5% BSA in 1× TBST (1× TBS with 0.1% Tween-20) for 1 h and incubated at 4 °C overnight with a 1:1000 dilution of the following primary antibodies in blocking buffer: pMer (Tyr749 + 753 + 754, ab14921), Mer (CST, # 4319), and ß-actin (SC, # SC-47778). […]
Figure 3. […] Bar graph represents the relative intensities of the total and phosphorylated Mer as determined by band densitometry using image analysis software.
(A western blot detects proteins with antibodies after separation by electrophoresis.)

The target of another experiment is T3, AXL (Homo sapiens, UniProt P30530).
T3 sequence (P30530 26-894): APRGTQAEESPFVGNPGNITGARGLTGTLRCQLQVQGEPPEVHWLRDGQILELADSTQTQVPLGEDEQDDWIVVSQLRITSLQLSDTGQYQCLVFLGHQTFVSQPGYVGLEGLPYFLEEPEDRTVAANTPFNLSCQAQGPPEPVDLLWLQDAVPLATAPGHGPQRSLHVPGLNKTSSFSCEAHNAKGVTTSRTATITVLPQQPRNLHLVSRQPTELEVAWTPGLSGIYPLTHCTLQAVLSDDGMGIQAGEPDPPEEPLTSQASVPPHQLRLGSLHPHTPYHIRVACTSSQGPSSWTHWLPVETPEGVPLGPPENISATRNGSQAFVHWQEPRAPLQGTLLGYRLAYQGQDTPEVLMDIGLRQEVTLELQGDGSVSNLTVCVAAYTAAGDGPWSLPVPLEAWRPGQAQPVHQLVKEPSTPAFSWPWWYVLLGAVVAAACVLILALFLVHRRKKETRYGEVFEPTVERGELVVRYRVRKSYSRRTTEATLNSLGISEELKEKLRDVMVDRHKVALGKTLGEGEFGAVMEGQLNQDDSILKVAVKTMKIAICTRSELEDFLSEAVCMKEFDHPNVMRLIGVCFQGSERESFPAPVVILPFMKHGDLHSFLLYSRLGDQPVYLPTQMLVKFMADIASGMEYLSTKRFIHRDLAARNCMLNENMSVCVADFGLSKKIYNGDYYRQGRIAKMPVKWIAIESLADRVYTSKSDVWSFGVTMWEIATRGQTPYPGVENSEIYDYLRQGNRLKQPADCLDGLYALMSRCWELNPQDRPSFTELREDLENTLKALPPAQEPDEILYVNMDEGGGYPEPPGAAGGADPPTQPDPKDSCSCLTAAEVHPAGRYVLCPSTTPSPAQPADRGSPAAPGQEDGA
Briefly: Kinase assay at Km ATP (Eurofins Discovery), Axl. It is filed as biochemical. Conditions: for IC50: Km ATP. The procedure: as §1

Experiment [3] concerns the target T1, TYRO3. Briefly: Kinase assay at Km ATP (Eurofins Discovery), Tyro3. It is filed as biochemical. The procedure:
as §1

“Also recorded” adds a separate entry of the source. Read-outs that look alike come from different tables or passages of the source.

As usually defined, the IC50 is the concentration at which inhibition is half-maximal. As a reminder, the inhibition is the drop in the measured response relative to a control, in per cent. Low values mean a weak effect, high ones a strong effect. One may read the %Inhibition as the share of the control response that was lost under treatment.

Take `CCOc1ccn(-c2ccc(F)cc2)c(=O)c1C(=O)Nc1ccc(Oc2ccnc(N)c2Cl)c(F)c1` [BMS-777607]: the IC50 was 4 nM at TYRO3 [1] and 14 nM in the experiment with Mer.
For `COc1ccc(-n2ccc3cnc(Nc4cc(OC)cc(N5CCC(N6CCCC6)CC5)c4)nc32)cc1` [Compound 27, N-(3-Methoxy-5–(4-(pyrrolidin-1-yl)piperidin-1-yl)phenyl)-7–(4-methoxyphenyl)-7H-pyrrolo[2,3-d]pyrimidin-2-amine], the half-inhibitory concentration (IC50) at MERTK (Table 2) was found to be 2 nM; against AXL (Table 2) it was 16 nM. Further, the “Inhibitory effect on Mer phosphorylation” value in experiment [2] is “better effect on blocking phosphorylation than UNC2025; also recorded: considerable inhibition for Mer phosphorylation in cells”. The inhibition at 1 µM on TYRO3 [3] amounted to 40%.
Regarding `CCCCNc1ncc2c(-c3ccc(CN4CCN(C)CC4)cc3)cn([C@H]3CC[C@H](O)CC3)c2n1` [UNC2025], the 50% inhibitory concentration (IC50) in the experiment with Mer was […].
As for `COc1ccc(-n2ccc3cnc(Nc4ccc(N5CCN(C)CC5)c(OC)c4)nc32)cc1` [Compound 16, N-(3-Methoxy-4–(4-methylpiperazin-1-yl)phenyl)-7–(4-methoxyphenyl)-7H-pyrrolo[2,3-d]pyrimidin-2-amine], the figures for the IC50 on MERTK (Table 2) and on AXL (Table 2) were 15 nM and 104 nM, respectively. Moreover, the “fold decreased IC50 for Mer compared to 2” value at MERTK (relative to compound 2) was determined as 2.6 fold. In addition, the “fold decreased IC50 for Axl compared to 2” value on AXL (relative to compound 2) is reported as 12 fold. In addition, at TYRO3 [3], the inhibition at 1 µM was determined as 27%.
As to `COc1cc(Nc2ncc3ccn([C@H]4CC[C@H](O)CC4)c3n2)cc(N2CCC(N3CCCC3)CC2)c1` [Compound 36, (1r,4r)-4–(2-((3-Methoxy-5–(4-(pyrrolidin-1-yl)piperidin-1-yl)phenyl)amino)-7H-pyrrolo[2,3-d]pyrimidin-7-yl)cyclohexanol], the IC50 at MERTK (Table 3) turned out to be 484 nM; at AXL (Table 3), 2020 nM. Besides, on TYRO3 [3] (Table 3, 1 µM, Km ATP), the “%Inhibition at 1 µM TYRO3” value was 55%.
Consider `COc1ccc(-n2ccc3cnc(Nc4ccc(NC5CCN(C)CC5)c(OC)c4)nc32)cc1` [Compound 17, 2-Methoxy-N4-(7–(4-methoxyphenyl)-7H-pyrrolo[2,3-d]pyrimidin-2-yl)-N1-(1-methylpiperidin-4-yl)benzene-1,4-diamine], for which the IC50 was determined as 10 nM at MERTK (Table 2) and 199 nM at AXL (Table 2). This compound came in with an inhibition at 1 µM at TYRO3 [3] of 37%.

The values are drawn from PMC7534383, “Structure-activity relationship of 7-aryl-2-anilino-pyrrolopyrimidines as Mer and Axl tyrosine kinase inhibitors” (Journal of Enzyme Inhibition and Medicinal Chemistry, 2020).
